Results taken from ChEMBL document CHEMBL1126739, “Excursions in drug discovery” (J Med Chem, 1993).
pIC50: −log10 of the molar value.

What was measured:
[1] = molecular target: T1, Angiotensin-converting enzyme (Homo sapiens, UniProt P12821); experiment: Inhibition of Angiotensin I converting enzyme
[2] = molecular target: T2, Cholecystokinin receptor type A (Homo sapiens, UniProt P32238); experiment: Antagonistic activity against cholecystokinin type A receptor; assay type: functional
T2 sequence (P32238 whole entry): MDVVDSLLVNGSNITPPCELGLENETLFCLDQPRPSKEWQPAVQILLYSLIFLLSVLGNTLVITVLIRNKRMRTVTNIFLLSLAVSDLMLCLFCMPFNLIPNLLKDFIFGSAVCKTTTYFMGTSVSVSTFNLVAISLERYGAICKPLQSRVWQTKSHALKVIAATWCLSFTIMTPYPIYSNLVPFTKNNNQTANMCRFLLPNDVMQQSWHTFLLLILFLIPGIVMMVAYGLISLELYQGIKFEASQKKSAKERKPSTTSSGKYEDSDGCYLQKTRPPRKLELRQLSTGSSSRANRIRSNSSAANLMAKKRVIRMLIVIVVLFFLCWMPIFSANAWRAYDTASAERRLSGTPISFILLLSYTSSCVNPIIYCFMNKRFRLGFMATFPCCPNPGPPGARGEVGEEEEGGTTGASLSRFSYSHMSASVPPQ

Renin = molecular target: T3, Renin (Homo sapiens, UniProt P00797); experiment: Inhibition of human renin
T3 sequence (P00797 whole entry): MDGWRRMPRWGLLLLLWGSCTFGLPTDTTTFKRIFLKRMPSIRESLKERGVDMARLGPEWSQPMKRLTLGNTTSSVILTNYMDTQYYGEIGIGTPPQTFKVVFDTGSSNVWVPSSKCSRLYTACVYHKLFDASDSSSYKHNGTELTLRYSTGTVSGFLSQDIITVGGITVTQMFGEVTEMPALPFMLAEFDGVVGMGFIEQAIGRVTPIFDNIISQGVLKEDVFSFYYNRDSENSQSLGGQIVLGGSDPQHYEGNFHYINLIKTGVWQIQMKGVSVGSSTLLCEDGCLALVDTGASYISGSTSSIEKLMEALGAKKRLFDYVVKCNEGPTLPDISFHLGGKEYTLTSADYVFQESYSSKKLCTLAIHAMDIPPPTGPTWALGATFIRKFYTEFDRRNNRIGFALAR

Thermolysin = molecular target: T4, Thermolysin (Bacillus thermoproteolyticus, UniProt P00800); experiment: Inhibition of metallopeptidase thermolysin
T4 sequence (P00800 whole entry): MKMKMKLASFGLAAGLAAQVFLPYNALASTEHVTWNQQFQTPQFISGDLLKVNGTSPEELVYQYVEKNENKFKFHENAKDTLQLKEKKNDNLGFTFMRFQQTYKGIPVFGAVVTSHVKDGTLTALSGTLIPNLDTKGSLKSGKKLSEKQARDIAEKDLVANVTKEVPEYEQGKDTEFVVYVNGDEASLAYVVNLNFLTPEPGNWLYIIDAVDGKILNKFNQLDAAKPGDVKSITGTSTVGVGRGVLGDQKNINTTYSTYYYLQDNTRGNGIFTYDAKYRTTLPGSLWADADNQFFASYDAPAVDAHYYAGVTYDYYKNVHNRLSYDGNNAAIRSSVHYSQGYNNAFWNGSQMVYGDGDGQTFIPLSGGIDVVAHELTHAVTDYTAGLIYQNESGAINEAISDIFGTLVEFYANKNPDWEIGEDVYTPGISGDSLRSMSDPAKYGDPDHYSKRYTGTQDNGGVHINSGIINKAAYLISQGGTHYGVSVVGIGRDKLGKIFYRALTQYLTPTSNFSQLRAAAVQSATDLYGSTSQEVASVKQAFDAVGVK

[3] = molecular target: T1, Angiotensin-converting enzyme; experiment: Inhibition of Angiotensin I converting enzyme at 3.3 x 10 E -4M concentration

T1 sequence (P12821 whole entry): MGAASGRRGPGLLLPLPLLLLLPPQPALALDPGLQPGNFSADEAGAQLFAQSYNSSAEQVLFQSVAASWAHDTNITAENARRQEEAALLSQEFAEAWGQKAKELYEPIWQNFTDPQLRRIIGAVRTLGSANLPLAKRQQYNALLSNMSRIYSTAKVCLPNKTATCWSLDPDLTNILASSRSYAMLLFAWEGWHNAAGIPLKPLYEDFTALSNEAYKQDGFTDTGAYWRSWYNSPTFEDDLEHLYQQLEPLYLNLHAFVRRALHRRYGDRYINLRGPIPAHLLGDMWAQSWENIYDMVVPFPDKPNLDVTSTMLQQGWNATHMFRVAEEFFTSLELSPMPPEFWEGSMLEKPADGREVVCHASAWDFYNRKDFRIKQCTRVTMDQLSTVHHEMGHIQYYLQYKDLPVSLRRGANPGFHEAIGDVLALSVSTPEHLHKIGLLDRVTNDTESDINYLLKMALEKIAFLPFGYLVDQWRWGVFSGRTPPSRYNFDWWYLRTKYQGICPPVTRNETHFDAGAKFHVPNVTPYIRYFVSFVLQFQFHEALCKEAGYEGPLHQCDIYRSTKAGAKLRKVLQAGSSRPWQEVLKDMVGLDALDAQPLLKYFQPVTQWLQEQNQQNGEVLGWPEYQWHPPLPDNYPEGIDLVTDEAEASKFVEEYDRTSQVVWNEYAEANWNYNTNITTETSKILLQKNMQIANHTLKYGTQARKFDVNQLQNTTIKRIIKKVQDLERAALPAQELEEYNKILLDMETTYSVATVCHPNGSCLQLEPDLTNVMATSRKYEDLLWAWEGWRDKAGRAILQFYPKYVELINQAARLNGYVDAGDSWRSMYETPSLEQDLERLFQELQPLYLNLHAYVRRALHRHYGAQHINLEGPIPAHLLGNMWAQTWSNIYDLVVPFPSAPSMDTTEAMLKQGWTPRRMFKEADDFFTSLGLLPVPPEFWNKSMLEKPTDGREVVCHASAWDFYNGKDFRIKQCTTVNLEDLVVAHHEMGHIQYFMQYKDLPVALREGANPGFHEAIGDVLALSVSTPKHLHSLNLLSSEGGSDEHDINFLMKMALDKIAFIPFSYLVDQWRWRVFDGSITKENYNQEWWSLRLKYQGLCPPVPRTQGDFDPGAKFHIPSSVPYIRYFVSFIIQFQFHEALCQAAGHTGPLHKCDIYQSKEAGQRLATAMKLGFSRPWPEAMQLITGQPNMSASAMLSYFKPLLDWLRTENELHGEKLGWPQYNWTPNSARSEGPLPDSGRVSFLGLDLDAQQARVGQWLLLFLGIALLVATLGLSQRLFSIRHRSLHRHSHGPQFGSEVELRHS

SMILES | pIC50 [1] | also measured
CC(CCC(=O)N1CCCC1C(=O)O)C(=O)O (centres undefined) | 3.59 | –
CC(C)C[C@@H]1N[C@H]2N(C1=O)c1ccccc1[C@@]2(O)C[C@@H]1NC(=O)c2ccccc2-n2c1nc1ccccc1c2=O [ASPERLICIN] | – | pIC50 [2]: 5.85
CC(C)(C)S(=O)(=O)C[C@@H](Cc1ccccc1)C(=O)NC1CSCCC[C@H](CN2CCOCC2)OC(=O)[C@H](O)[C@H](CC2CCCCC2)NC1=O (some centres undefined) | – | pIC50 (Renin): 9.46
CC(N[C@H](C)C(=O)N1CCC[C@H]1C(=O)O)C(=O)O (some centres undefined) | 7.05 | –
C[C@@H](NCC(=O)O)C(=O)N1CCC[C@H]1C(=O)O | 5.62 | –
C[C@@H](CCC(=O)O)C(=O)N1CCCC1C(=O)O (some centres undefined) | 5.31 | –
CC(NP(=O)(O)CCc1ccccc1)C(=O)N1CCCC1C(=O)O (centres undefined) | – | pIC50 (Thermolysin): 8.15
O=C(CCC(=O)N1CCCC1C(=O)O)NO (centres undefined) | 4.30 | –
O=C(O)CCC(=O)N1CCCC1C(=O)O (centres undefined) | – | inhibition [3]: 43%
